One assay concerns the target T1, human V1a receptor (Homo sapiens, UniProt P37288).
T1 construct: expressed in transfected cells; host or cells: CHO K1 (constitutively expressing modified aequorin)
Nature of the assay: Cellular in vitro assay for determining the vasopressin receptor activity (aequorin luminescence). It is filed as cell-based. The note with it: CHO cell line transfected with the human V1a receptor; agonist [Arg8]-vasopressin; read-out: IC50 hV1a. The text has this:
(§1) B-1. Cellular In Vitro Assay for Determining the Vasopressin Receptor Activity
(§2) The identification of agonists and antagonists of the V1a and V2 vasopressin receptors from humans and rats and also the quantification of the activity of the substances described here took place using recombinant cell lines. These cells derive originally from a hamster ovary epithelial cell (Chinese Hamster Ovary, CHO K1, ATCC: American Type Culture Collection, Manassas, Va. 20108, USA). The test cell lines constitutively express a modified form of the calcium-sensitive photoprotein aequorin, which, after reconstitution with the cofactor coelenterazine, emits light when there are increases in the free calcium concentration (Rizzuto R., Simpson A. W., Brini M., Pozzan T.; Nature 358 (1992) 325-327). In addition, the cells are stably transfected with the human or rat V1a or V2 receptors. In the case of the Gs-coupling V2 receptors, the cells are stably transfected with a further gene, which codes for the promiscuous Gα16 protein (Amatruda T. T., Steele D. A., Slepak V. Z., Simon M. I., Proc. Nat. Acad. Sci. USA 88 (1991), 5587-5591), either independently or as a fusion gene. The resulting vasopressin receptor test cells react to stimulation of the recombinantly expressed vasopressin receptors by intracellular release of calcium ions, which can be quantified by the resulting aequorin luminescence using a suitable luminometer (Milligan G., Marshall F., Rees S., Trends in Pharmaco. Sci. 17 (1996) 235-237).
(§3) On the day before the assay, the cells are plated out in culture medium (DMEM, 10% FCS, 2 mM glutamine, 10 mM HEPES) in 384-well microtiter plates and kept in a cell incubator (96% humidity, 5% v/v carbon dioxide, 37° C.). On the day of the assay, the culture medium is replaced by a Tyrode solution (140 mM sodium chloride, 5 mM potassium chloride, 1 mM magnesium chloride, 2 mM calcium chloride, 20 mM glucose, 20 mM HEPES), which additionally contains the cofactor coelenterazine (50 μM), and the microtiter plate is then incubated for a further 3-4 hours. The test substances in various concentrations are placed for 10 to 20 minutes in the wells of the microtiter plate before the agonist [Arg8]-vasopressin is added, and the resulting light signal is measured immediately in the luminometer. The IC50 values are calculated using the GraphPad PRISM computer program (Version 3.02).
(§4) The table below lists representative IC50 values for the compounds of the invention on the cell line transfected with the human V1a or V2 receptor: […]

For a further assay, the target named is T2, human V2 receptor (Homo sapiens, UniProt P30518).
T2 construct: expressed in transfected cells; host or cells: CHO K1 (constitutively expressing modified aequorin; co-transfected with promiscuous G-alpha-16)
The assay is described as above. It is filed as cell-based. To be noted: CHO cell line transfected with the human V2 receptor (and Gα16); agonist [Arg8]-vasopressin; read-out: IC50 hV2.
Description: as §1, §2, §3, §4

SMILES strings stand for the structures. Where a name gives a salt, the structure may show the parent alone.

T2 sequence (P30518 whole entry): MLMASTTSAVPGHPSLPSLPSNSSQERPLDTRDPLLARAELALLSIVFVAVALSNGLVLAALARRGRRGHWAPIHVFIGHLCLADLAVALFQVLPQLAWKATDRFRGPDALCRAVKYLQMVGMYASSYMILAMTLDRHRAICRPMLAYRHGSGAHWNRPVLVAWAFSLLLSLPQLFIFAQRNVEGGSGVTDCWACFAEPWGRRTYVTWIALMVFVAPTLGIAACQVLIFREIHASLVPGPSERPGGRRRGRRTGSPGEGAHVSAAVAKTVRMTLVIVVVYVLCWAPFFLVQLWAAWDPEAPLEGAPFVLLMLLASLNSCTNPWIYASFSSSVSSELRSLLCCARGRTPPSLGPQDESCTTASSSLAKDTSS
T1 sequence (P37288 whole entry): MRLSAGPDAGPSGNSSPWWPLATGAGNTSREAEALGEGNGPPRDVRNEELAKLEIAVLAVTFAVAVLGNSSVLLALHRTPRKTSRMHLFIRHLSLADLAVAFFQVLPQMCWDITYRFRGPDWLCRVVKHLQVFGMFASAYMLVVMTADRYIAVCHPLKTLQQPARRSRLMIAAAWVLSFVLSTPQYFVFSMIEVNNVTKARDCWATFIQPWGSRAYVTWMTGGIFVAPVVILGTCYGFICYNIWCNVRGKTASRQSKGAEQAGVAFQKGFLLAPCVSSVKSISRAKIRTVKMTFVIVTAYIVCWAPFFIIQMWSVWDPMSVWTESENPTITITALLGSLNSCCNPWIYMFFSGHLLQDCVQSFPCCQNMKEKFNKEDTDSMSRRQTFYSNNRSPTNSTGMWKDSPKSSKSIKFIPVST

Take `NCC(NC(=O)Cn1nc(-c2ccc(Cl)cc2)n(C[C@H](O)C(F)(F)F)c1=O)c1cccc(C(F)(F)F)c1` (mixture of isomers) [Example 10, N-{2-Amino-1-[3-(trifluoromethyl)phenyl]ethyl}-2-{3-(4-chlorophenyl)-5-oxo-4-[(2S)-3,3,3-trifluoro-2-hydroxypropyl]-4,5-dihydro-1H-1,2,4-triazol-1-yl}acetamide hydrochloride (diastereomer mixture)]: the IC50 at human V1a receptor was 10.4 nM; at human V2 receptor, 6.3 nM.

For the compound `CC(=O)NCC(NC(=O)Cn1nc(-c2ccc(Cl)cc2)n(C[C@H](O)C(F)(F)F)c1=O)c1cccc(C(F)(F)F)c1` (mixture of isomers) [Example 20, N-{2-(Acetylamino)-1-[3-(trifluoromethyl)phenyl]ethyl}-2-{3-(4-chlorophenyl)-5-oxo-4-[(2S)-3,3,3-trifluoro-2-hydroxypropyl]-4,5-dihydro-1H-1,2,4-triazol-1-yl}acetamide (diastereomer mixture)], the IC50 on human V1a receptor stood at 1.5 nM; at human V2 receptor, 6.3 nM.

As to `O=C(Cn1nc(-c2ccc(Cl)cc2)n(C[C@H](O)C(F)(F)F)c1=O)NC(c1cccc(C(F)(F)F)c1)C(O)C(F)(F)F` (mixture of isomers) [Example 78, 2-{3-(4-Chlorophenyl)-5-oxo-4-[(2S)-3,3,3-trifluoro-2-hydroxypropyl]-4,5-dihydro-1H-1,2,4-triazol-1-yl}-N-{3,3,3-trifluoro-2-hydroxy-1-[3-(trifluoromethyl)phenyl]propyl}acetamide], the IC50 was 21.1 nM on human V1a receptor and 30.4 nM on human V2 receptor.

Take `COc1cccc(C(CCO)NC(=O)Cn2nc(-c3ccc(Cl)cc3)n(C3CC3)c2=O)c1` (racemic) [Example 89, 2-[3-(4-Chlorophenyl)-4-cyclopropyl-5-oxo-4,5-dihydro-1H-1,2,4-triazol-1-yl]-N-[3-hydroxy-1-(3-methoxyphenyl)propyl]acetamide]: the results for the IC50 on human V1a receptor and at human V2 receptor were 2880 nM and 290 nM, respectively.

Consider `O=C(Cn1nc(-c2ccc(Cl)cc2)n(C2CC2)c1=O)NC(CO)c1cccc(C(F)(F)F)c1` (racemic) [Example 96, 2-[3-(4-Chlorophenyl)-4-cyclopropyl-5-oxo-4,5-dihydro-1H-1,2,4-triazol-1-yl]-N-{2-hydroxy-1-[3-(trifluoromethyl)phenyl]ethyl}acetamide], for which the results for the IC50 at human V1a receptor and on human V2 receptor were 71.3 nM and 40.2 nM, respectively.

`NC(=O)OCC(NC(=O)Cn1nc(-c2ccc(Cl)cc2)n(C[C@H](O)C(F)(F)F)c1=O)c1cccc(C(F)(F)F)c1` (single isomer, unassigned) [Example 48]: the IC50 stood at 5.2 nM on human V1a receptor and 4.4 nM at human V2 receptor.

For `NC(=O)OCC(NC(=O)Cn1nc(-c2ccc(Cl)cc2)n(C[C@H](O)C(F)(F)F)c1=O)c1ccccc1C(F)(F)F` (single isomer, unassigned) [Example 51], the IC50 on human V1a receptor was determined as 1 nM; at human V2 receptor it was 8.5 nM.

Take `NC(=O)NCC(NC(=O)Cn1nc(-c2ccc(Cl)cc2)n(C[C@H](O)C(F)(F)F)c1=O)c1cccc(C(F)(F)F)c1` (single isomer, unassigned) [Example 57]: the IC50 on human V1a receptor worked out at 2.9 nM; on human V2 receptor, 2.2 nM.

`NC(=O)NCC(NC(=O)Cn1nc(-c2ccc(Cl)cc2)n(C[C@H](O)C(F)(F)F)c1=O)c1ccccc1C(F)(F)F` (single isomer, unassigned) [Example 60]: the half-maximal inhibitory concentration (IC50) at human V1a receptor is 0.5 nM; at human V2 receptor, 4.5 nM.

Turning to `NC(=O)NCC(NC(=O)Cn1nc(-c2ccc(Cl)cc2)n(C[C@H](O)C(F)(F)F)c1=O)c1cccc(Cl)c1Cl` (single isomer, unassigned) [Example 62], the 50% inhibitory concentration (IC50) on human V1a receptor turned out to be 3.6 nM; at human V2 receptor, 1 nM.

Turning to `NC(=O)OCC(NC(=O)Cn1nc(-c2ccc(Cl)cc2)n(/C=C/C(F)(F)F)c1=O)c1cccc(C(F)(F)F)c1` (single isomer, unassigned) [Example 65, 2-[({3-(4-Chlorophenyl)-5-oxo-4-[(1E)-3,3,3-trifluoroprop-1-en-1-yl]-4,5-dihydro-1H-1,2,4-triazol-1-yl}acetyl)amino]-2-[3-(trifluoromethyl)phenyl]ethyl carbamate], the IC50 on human V1a receptor and on human V2 receptor was 16.8 nM in each case.

Regarding `NC(=O)OCCC(NC(=O)Cn1nc(-c2ccc(Cl)cc2)n(C[C@H](O)C(F)(F)F)c1=O)c1cccc(Cl)c1Cl` (single isomer, unassigned) [Example 73], the IC50 at human V1a receptor came to 10.8 nM; on human V2 receptor, 1.6 nM.

In the case of `Cc1ccccc1C(CCO)NC(=O)Cn1nc(-c2ccc(Cl)cc2)n(C[C@H](O)C(F)(F)F)c1=O` (single isomer, unassigned) [Example 87], the IC50 amounted to 3.8 nM at human V1a receptor and 5.8 nM on human V2 receptor.

For `NC(=O)OCC(NC(=O)Cn1nc(-c2ccc(Cl)cc2)n(CCC(F)(F)F)c1=O)c1cccc(C(F)(F)F)c1` (single isomer, unassigned) [Example 112, 2-({[3-(4-Chlorophenyl)-5-oxo-4-(3,3,3-trifluoropropyl)-4,5-dihydro-1H-1,2,4-triazol-1-yl]acetyl}amino)-2-[3-(trifluoromethyl)phenyl]ethyl carbamate], the IC50 on human V1a receptor was 2.4 nM; at human V2 receptor, 6 nM.

Take `COC(=O)NCC(NC(=O)Cn1nc(-c2ccc(Cl)cc2)n(CCC(F)(F)F)c1=O)c1cccc(Cl)c1Cl` (single isomer, unassigned) [Example 115, Methyl [2-({[3-(4-chlorophenyl)-5-oxo-4-(3,3,3-trifluoropropyl)-4,5-dihydro-1H-1,2,4-triazol-1-yl]acetyl}amino)-2-(2,3-dichlorophenyl)ethyl]carbamate]: the IC50 was found to be 3.5 nM on human V1a receptor and 7.6 nM on human V2 receptor.

As for `NC(=O)NCC(NC(=O)Cn1nc(-c2ccc(Cl)cc2)n(CCC(F)(F)F)c1=O)c1cccc(Cl)c1Cl` (single isomer, unassigned) [Example 121, N-[2-(Carbamoylamino)-1-(2,3-dichlorophenyl)ethyl]-2-[3-(4-chlorophenyl)-5-oxo-4-(3,3,3-trifluoropropyl)-4,5-dihydro-1H-1,2,4-triazol-1-yl]acetamide], the IC50 on human V1a receptor stood at 0.9 nM; at human V2 receptor it was 1.4 nM.

Turning to `CS(=O)(=O)NCC(NC(=O)Cn1nc(-c2ccc(Cl)cc2)n(C[C@H](O)C(F)(F)F)c1=O)c1ccccc1Cl` (single isomer, unassigned) [Example 126], the IC50 on human V1a receptor and on human V2 receptor was 1.8 nM throughout.

`CS(=O)(=O)CC(NC(=O)Cn1nc(-c2ccc(Cl)cc2)n(C[C@H](O)C(F)(F)F)c1=O)c1ccccc1C(F)(F)F` (single isomer, unassigned) [Example 136]: the figures for the IC50 on human V1a receptor and at human V2 receptor were 3.9 nM and 24 nM, respectively.

As to `CN(C)S(=O)(=O)CC(NC(=O)Cn1nc(-c2ccc(Cl)cc2)n(C[C@H](O)C(F)(F)F)c1=O)c1cccc(C(F)(F)F)c1` (single isomer, unassigned) [Example 141], the figures for the IC50 at human V1a receptor and on human V2 receptor were 36 nM and 4.8 nM, respectively.

Turning to `NC(=O)OCC(NC(=O)Cn1nc(-c2ccc(Cl)cc2)n(CCC(F)(F)F)c1=O)c1ccccc1C(F)(F)F` (single isomer, unassigned) [Example 144, 2-({[3-(4-Chlorophenyl)-5-oxo-4-(3,3,3-trifluoropropyl)-4,5-dihydro-1H-1,2,4-triazol-1-yl]acetyl}amino)-2-[2-(trifluoromethyl)phenyl]ethyl carbamate], the IC50 is 1.4 nM on human V1a receptor and 13.9 nM on human V2 receptor.

In the case of `O=C(Cn1nc(-c2ccc(Cl)cc2)n(C[C@H](O)C(F)(F)F)c1=O)NC(CN1CCOC1=O)c1cccc(C(F)(F)F)c1` (single isomer, unassigned) [Example 149], the results for the IC50 on human V1a receptor and at human V2 receptor were 2 nM and 15 nM, respectively.

In the case of `O=C(Cn1nc(-c2ccc(Cl)cc2)n(C[C@H](O)C(F)(F)F)c1=O)NC(CN1CCNC1=O)c1cccc(C(F)(F)F)c1` (single isomer, unassigned) [Example 152], the IC50 is 2.2 nM on human V1a receptor and 7.1 nM on human V2 receptor.

As for `CSCC(NC(=O)Cn1nc(-c2ccc(Cl)cc2)n(C[C@H](O)C(F)(F)F)c1=O)c1ccccc1C(F)(F)F` (single isomer, unassigned) [Example 156], the IC50 at human V1a receptor amounted to 1.9 nM; at human V2 receptor, 10 nM.
